Measurements reported in patent publication US20220098265A1 (MEDIMMUNE LIMITED, priority 2012, published 2022).
Like-named read-outs stand apart in the source and are kept apart here. Numbered stars: 1 amine (or outer) side, 2 acyl side, 3 side chain; on linkers, the order of the positions; unused ones are H or OH. Side chains are listed from the residue outwards. Peptide text beside a SMILES is read from it. * marks the point of attachment. γGlu = O=C(O)[C@H](CCC(=O)[*:2])N[*:1]; Palmitoyl = CCCCCCCCCCCCCCCC(=O)*

Tests used:
[1] = Stability testing of peptides in human plasma; format: in vitro ADME
Protocol: Stability testing of peptides in plasma. The stability in plasma of the peptides […], […], […] and […] was determined as follows. […] The frozen blank plasma from human, rat and mouse had been thawed and heated to a temperature of 37° C. before addition of the stock solution. The spiked plasma samples were gently mixed and allowed to equilibrate for about 5 minutes before start of experiment. The plasma samples were incubated for 48 hours in a Galaxy® CO2 incubator at 37° C. […] The samples were stored at -70° C. until analysis. Plasma samples were assayed as follows. The 30 μL plasma samples were protein precipitated with […] of cold ethanol in a 96-well low bind plate (Eppendorf Protein LoBind). After mixing and centrifugation 100 μl the supernatant was transferred to a new plate and 1 μl was injected onto an analytical column. The analysis was performed using a μLC-system ([…]) coupled to a medium high resolution mass spectrometer (Perkin Elmer PenTOF) with positive electrospray ionisation. […] Flow: 0.1 ml/min using a slow reversed phase gradient. […] Products with +1 mass may arise from deamidation at amide groups of glutamine or at the C-terminus. Cleavage products arise from the action of the protease DPP IV in plasma. Both the degradation of the peptides and formation of peptide products were reported in percentage of the initial peptide concentration. Peaks were integrated and % remaining peptide was calculated: […] Levels of deamidation and DPP IV cleavage were low for […] and […].

DIO mice = experiment: Diet induced obesity (DIO) mouse model, study B; format: in vivo; settings: for BW day 14 (% change of vehicle mean) / HOMA / Hepatic TG (g TG/100g tissue) / Plasma NEFA / Plasma TG: day 14; for Glucose / Insulin: day 14, 4-hour fasting
Protocol: The body weight of the animals was monitored daily throughout the dosing period At day 14, blood samples for the measurement of plasma glucose and insulin from conscious mice were obtained after a 4-hour fasting period. Mice were then anaesthetized using isofluorane and terminal blood was collected from the capillary bed behind the eye. The following parameters were measured: blood chemistry measurements of triglycerides, total cholesterol, non-esterified fatty acids (NEFA), beta-hydroxybutyrate and fibroblast growth factor 21 (FGF21) (Table 16 and Table 17 below).

human serum albumin = human serum albumin (Homo sapiens, UniProt P02768); experiment: Fraction of free peptide at plasma concentration of albumin, calculated from variation in cAMP generation with HSA concentration; format: in vitro ADME; set-up: purchased Sigma Aldrich
human serum albumin, sequence (P02768 25-609): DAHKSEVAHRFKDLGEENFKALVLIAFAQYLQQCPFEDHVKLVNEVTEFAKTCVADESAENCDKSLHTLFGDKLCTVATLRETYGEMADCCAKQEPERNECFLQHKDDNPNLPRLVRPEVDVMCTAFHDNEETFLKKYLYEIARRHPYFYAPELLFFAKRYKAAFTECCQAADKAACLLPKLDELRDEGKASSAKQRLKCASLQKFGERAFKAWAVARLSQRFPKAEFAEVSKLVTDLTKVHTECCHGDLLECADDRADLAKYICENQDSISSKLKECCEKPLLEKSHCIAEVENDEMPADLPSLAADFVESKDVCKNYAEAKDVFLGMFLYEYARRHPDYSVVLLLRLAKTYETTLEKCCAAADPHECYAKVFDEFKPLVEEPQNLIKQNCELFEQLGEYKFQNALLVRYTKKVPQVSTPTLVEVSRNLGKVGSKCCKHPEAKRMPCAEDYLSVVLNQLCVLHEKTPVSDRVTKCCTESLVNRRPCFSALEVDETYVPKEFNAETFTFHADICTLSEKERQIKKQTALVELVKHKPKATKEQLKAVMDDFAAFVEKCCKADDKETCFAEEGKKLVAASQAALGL

Human GIPr = molecular target: T1, Human GIPr (Homo sapiens, UniProt P48546); experiment: cAMP activity assay 1 in assay medium, human GIP receptor; format: cell-based; settings: additional peptides (Table 4)
T1 construct: expressed in transfected cells
T1 sequence (P48546 22-466): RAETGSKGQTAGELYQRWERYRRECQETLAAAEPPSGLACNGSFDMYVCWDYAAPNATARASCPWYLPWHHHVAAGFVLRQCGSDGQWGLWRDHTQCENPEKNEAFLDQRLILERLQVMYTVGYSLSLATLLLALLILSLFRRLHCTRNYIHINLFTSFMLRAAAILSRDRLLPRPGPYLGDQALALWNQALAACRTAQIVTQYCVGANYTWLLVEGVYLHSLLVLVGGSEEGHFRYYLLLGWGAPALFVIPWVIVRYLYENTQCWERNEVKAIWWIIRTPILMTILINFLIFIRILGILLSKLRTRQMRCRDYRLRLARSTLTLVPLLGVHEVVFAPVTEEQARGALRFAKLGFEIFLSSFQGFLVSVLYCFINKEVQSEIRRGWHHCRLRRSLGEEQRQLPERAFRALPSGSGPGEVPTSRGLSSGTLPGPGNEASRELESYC
Protocol: (§1) All sample dilutions were made in duplicate.
(§2) A frozen cryo-vial of cells expressing the receptor of interest was thawed rapidly in a water-bath, transferred to pre-warmed assay media and spun at 240×g for 5 minutes. Cells were re-suspended in assay media at an optimised concentration (e.g. hGCGR cells at 1×10^5 cells/ml, hGLP-1R and hGIPR cells at 0.5×10^5 cells/ml).
(§3) To this, 5 μL cell suspension was added and the plates incubated at room temperature for 30 minutes.
(§4) cAMP levels were measured using a commercially available cAMP dynamic 2 HTRF kit (Cisbio, Cat #62AM4PEJ), following the two step protocol as per manufacturer's recommendations. In brief; anti-cAMP cryptate (donor fluorophore) and cAMP-d2 (acceptor fluorophore) were made up separately by diluting each 1/20 in conjugate & lysis buffer provided in the kit. 5 μL anti-cAMP cryptate was added to all wells of the assay plate, and 5 μL cAMP-d2 added to all wells except non-specific binding (NSB) wells, to which conjugate and lysis buffer was added.

Human GlucR = Human GlucR (Homo sapiens, UniProt P47871); settings: read-out: hGlucR EC50; assay 1; additional peptides (Table 4)
Human GlucR, sequence (P47871 26-477): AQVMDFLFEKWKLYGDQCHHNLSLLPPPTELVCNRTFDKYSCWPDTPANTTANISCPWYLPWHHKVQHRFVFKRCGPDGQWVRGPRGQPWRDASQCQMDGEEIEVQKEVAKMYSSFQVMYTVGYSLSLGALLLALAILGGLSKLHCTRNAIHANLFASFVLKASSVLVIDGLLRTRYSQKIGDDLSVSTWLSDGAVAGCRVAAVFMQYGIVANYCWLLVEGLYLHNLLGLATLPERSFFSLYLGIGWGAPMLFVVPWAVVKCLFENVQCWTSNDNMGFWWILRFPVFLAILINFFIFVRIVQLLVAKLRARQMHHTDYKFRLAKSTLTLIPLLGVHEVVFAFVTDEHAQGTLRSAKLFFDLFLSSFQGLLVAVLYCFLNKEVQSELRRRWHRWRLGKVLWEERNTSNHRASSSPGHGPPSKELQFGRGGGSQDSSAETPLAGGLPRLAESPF
Protocol: as §1, §2, §3, §4

Human GLP1R = Human GLP1R (Homo sapiens, UniProt P43220); settings: read-out: hGLP1R EC50; assay 1; additional peptides (Table 4)
Human GLP1R, sequence (P43220 24-463): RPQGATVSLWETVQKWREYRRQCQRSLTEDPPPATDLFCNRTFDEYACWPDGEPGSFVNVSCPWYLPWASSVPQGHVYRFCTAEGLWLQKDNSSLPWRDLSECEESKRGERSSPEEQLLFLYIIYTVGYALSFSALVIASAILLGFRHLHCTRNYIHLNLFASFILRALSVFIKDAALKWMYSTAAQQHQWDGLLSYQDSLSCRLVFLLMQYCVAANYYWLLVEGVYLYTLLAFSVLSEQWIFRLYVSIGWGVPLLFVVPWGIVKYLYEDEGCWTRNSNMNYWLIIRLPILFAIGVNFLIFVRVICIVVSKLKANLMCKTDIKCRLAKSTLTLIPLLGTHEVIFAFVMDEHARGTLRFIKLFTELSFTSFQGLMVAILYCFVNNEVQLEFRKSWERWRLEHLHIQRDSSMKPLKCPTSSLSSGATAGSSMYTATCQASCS
Protocol: as §1, §2, §3, §4

Protocol for physchem: Peptide solubility was assessed in three different isotonic formulations: • 1. […] Final formulation pH=7.2 • 2. Back up formulation 1 (BF1)=0.05M Tris, 50 mM Arginine/Proline. Final formulation pH=8.0 • 3. […] Final formulation pH=7.0

CCCCCCCCCCCCCCCC(=O)N[C@@H](CCC(=O)NCCCC[C@H](NC(=O)[C@H](CC(=O)O)NC(=O)[C@H](CO)NC(=O)[C@@H](NC(=O)[C@H](Cc1ccccc1)NC(=O)[C@@H](NC(=O)CNC(=O)[C@H](CCC(N)=O)NC(=O)[C@H](CO)NC(=O)[C@@H](N)Cc1c[nH]cn1)[C@@H](C)O)[C@@H](C)O)C(=O)N[C@@H](CO)C(=O)N[C@@H](CCC(=O)O)C(=O)N[C@@H](Cc1ccc(O)cc1)C(=O)N[C@@H](CC(C)C)C(=O)N[C@@H](CC(=O)O)C(=O)N[C@@H](CO)C(=O)N[C@@H](CCC(=O)O)C(=O)N[C@@H](CCCNC(=N)N)C(=O)N[C@@H](C)C(=O)N[C@@H](CCCNC(=N)N)C(=O)N[C@@H](CC(=O)O)C(=O)N[C@@H](Cc1ccccc1)C(=O)N[C@H](C(=O)N[C@@H](C)C(=O)N[C@@H](Cc1c[nH]c2ccccc12)C(=O)N[C@@H](CC(C)C)C(=O)N[C@@H](CCC(=O)O)C(=O)N[C@@H](C)C(=O)NCC(=O)NCC(=O)O)C(C)C)C(=O)O [Peptide G933]
% DPP cleaved product/+1 DPP cleaved product [1]: <1%
BW day 14 (% change of vehicle mean) (DIO mice; 5 nmol/kg s.c. twice daily for 14 days): −11%
HOMA (DIO mice; 5 nmol/kg s.c. twice daily): 3.31
Hepatic TG (g TG/100g tissue) (DIO mice; 5 nmol/kg s.c. twice daily): 11.3 g TG/100g tissue
Plasma NEFA (DIO mice; 5 nmol/kg s.c. twice daily): 0.28 mM
Plasma TG (DIO mice; 5 nmol/kg s.c. twice daily): 0.19 mM
Glucose (DIO mice; 5 nmol/kg s.c. twice daily): 6.2 mM
Insulin (DIO mice; 5 nmol/kg s.c. twice daily): 0.53 nM
BW day 14 (% change of vehicle mean) (DIO mice; 10 nmol/kg s.c. twice daily for 14 days): −19%
HOMA (DIO mice; 10 nmol/kg s.c. twice daily): 1.98
Hepatic TG (g TG/100g tissue) (DIO mice; 10 nmol/kg s.c. twice daily): 14.7 g TG/100g tissue
Plasma NEFA (DIO mice; 10 nmol/kg s.c. twice daily): 0.27 mM
Plasma TG (DIO mice; 10 nmol/kg s.c. twice daily): 0.16 mM
Glucose (DIO mice; 10 nmol/kg s.c. twice daily): 7.2 mM
Insulin (DIO mice; 10 nmol/kg s.c. twice daily): 0.27 nM
effect on body weight over the 14 day dosing period (DIO mice; study B, FIGS. 5-8): dose dependent and continuous weight loss
solubility (physchem; pH 7): ≥ 10000 µg/mL
solubility (physchem; pH 7.2): ≥ 5000 µg/mL
free peptide at 4.4% HSA (human serum albumin): 0.29%

CCCCCCCCCCCCCCCC(=O)N[C@@H](CCC(=O)NCCCC[C@H](NC(=O)[C@H](CO)NC(=O)[C@H](CC(=O)O)NC(=O)[C@H](CC(C)C)NC(=O)[C@H](Cc1ccc(O)cc1)NC(=O)[C@H](CCCCN)NC(=O)[C@H](CO)NC(=O)[C@H](Cc1ccc(O)cc1)NC(=O)[C@H](CC(=O)O)NC(=O)[C@H](CO)NC(=O)[C@@H](NC(=O)[C@H](Cc1ccccc1)NC(=O)[C@@H](NC(=O)CNC(=O)[C@H](CCC(N)=O)NC(=O)[C@H](CO)NC(=O)[C@@H](N)Cc1c[nH]cn1)[C@@H](C)O)[C@@H](C)O)C(=O)N[C@@H](CCCNC(=N)N)C(=O)N[C@@H](C)C(=O)N[C@@H](CCC(=O)O)C(=O)N[C@@H](CC(=O)O)C(=O)N[C@@H](Cc1ccccc1)C(=O)N[C@H](C(=O)N[C@@H](CCC(N)=O)C(=O)N[C@@H](Cc1c[nH]c2ccccc12)C(=O)N[C@@H](CC(C)C)C(=O)N[C@H](C(=O)N[C@@H](C)C(=O)NCC(=O)NCC(N)=O)C(C)C)C(C)C)C(=O)O [g599]
EC50 (Human GIPr; g688, read-out: hGIPR EC50): 112 nM

CCCCCCCCCCCCCCCC(=O)N[C@@H](CCC(=O)NCCCC[C@H](NC(=O)[C@H](Cc1ccc(O)cc1)NC(=O)[C@H](CCCNC(=N)N)NC(=O)[C@H](CO)NC(=O)[C@H](Cc1ccc(O)cc1)NC(=O)[C@H](CC(=O)O)NC(=O)[C@H](CO)NC(=O)[C@@H](NC(=O)[C@H](Cc1ccccc1)NC(=O)[C@@H](NC(=O)CNC(=O)[C@H](CCC(N)=O)NC(=O)[C@H](CO)NC(=O)[C@@H](N)Cc1c[nH]cn1)[C@@H](C)O)[C@@H](C)O)C(=O)N[C@@H](CC(=O)O)C(=O)N[C@@H](CO)C(=O)N[C@@H](CCCNC(=N)N)C(=O)N[C@@H](CO)C(=O)N[C@@H](C)C(=O)N[C@@H](CCCNC(=N)N)C(=O)N[C@@H](CC(=O)O)C(=O)N[C@@H](Cc1ccccc1)C(=O)N[C@H](C(=O)N[C@@H](C)C(=O)N[C@@H](Cc1c[nH]c2ccccc12)C(=O)N[C@@H](CC(C)C)C(=O)N[C@@H](CCC(=O)O)C(=O)N[C@@H](C)C(N)=O)C(C)C)C(=O)O [g850] (H-HSQGTFTSDYSRYK([γGlu-Palmitoyl])DSRSARDFVAWLEA-NH2)
EC50 (Human GlucR): 2.19 pM
EC50 (Human GLP1R): 0.0212 nM
EC50 (Human GIPr; read-out: hGIPR EC50): 89.6 nM

Listed in the section of parent HSQGTFTSDYSKYLDSRRAQDFVQWLEAGG; no modification printed [g536]
EC50 (Human GLP1R): 0.0745 nM
